Data taken from US9919998B2, “Antibacterial agents: Nα-aroyl-N-aryl-phenylalaninamides” (priority 2014, dated 2018).
Converted amounts (≈) assume the structure as drawn. Where two headings read alike, the source gives them in different places.

How the values were obtained:
Type in all cases: cell-based
[1] = test system: Mycobacterium tuberculosis H37Rv; assay: Microplate Alamar Blue assay (MABA) MIC, M. tuberculosis; details: read-out: MIC Mycobacterium tuberculosis H37Rv
Text: (§1) Minimal inhibitory concentrations (MICs) in Mycobacterium tuberculosis H37Rv and Mycobacterium avium ATCC 25291 were quantified using microplate Alamar Blue assays as described (MABA; [Collins, L. & Franzblau, S. (1997) Microplate Alamar Blue assay versus BACTEC 460 system for high-throughput screening of compounds against Mycobacterium tuberculosis and Mycobacterium avium. Antimicrob. Agents Chemother. 41, 1004-1009]).

[2] = test system: Mycobacterium smegmatis ATCC 19420; assay: Broth microdilution MIC, M. smegmatis; details: Mycolicibacterium smegmatis
Text: MICs in Mycobacterium smegmatis ATCC 19420 and Mycobacterium smegmatis ATCC 19420 derivatives were quantified using broth microdilution assays as described [Clinical and Laboratory Standards Institute (CLSI/NCCLS) (2009) Methods for Dilution Antimicrobial Susceptibility Tests for Bacteria That Grow Aerobically; Approved Standard, Eighth Edition. CLIS Document M07-A8 (CLIS, Wayne Pa.)].

[3] = test system: Vero E6 ATCC CRL1586 cells; assay: Mammalian-cell cytotoxicity, minimal cytotoxic concentration (CellTiter96)
Description: Minimal cytotoxic concentrations (MCCs) against mammalian cells in culture were determined using Vero E6 ATCC CRL1586 cells and the CellTiter96 assay kit (Promega, Inc.). […]

[4] = test system: Mycobacterium avium ATCC 25291; assay: Microplate Alamar Blue assay (MABA) MIC, M. avium; details: ATCC25291, M. avium ATCC 25291
Text: as §1

[5] = ATCC19420, M. smegmatis ATCC 19420, read-out: MIC Mycobacterium smegmatis ATCC 19420
[6] = ATCC19420, broth microdilution assays, M. smegmatis ATCC19420, read-out: Inhibition of mycobacterial growth in culture (MICs)

| SMILES | MIC [1] [µg/mL] | MIC [2, 5] [µg/mL] | MCC mammalian cells Vero E6 ATCC CRL1586 [3] [µg/mL] | MIC [4] [µg/mL] | MIC [2, 6] [µg/mL] |
| --- | --- | --- | --- | --- | --- |
| O=C(NC(Cc1ccccc1)C(=O)Nc1ccccc1-n1cnnn1)c1ccccc1 (stereo not drawn) [I-225] | > 50 | 6.25 (≈ 15.2 µM) | >100 | – | – |
| CC1CN(c2ccc(F)cc2NC(=O)C(Cc2ccccc2)NC(=O)c2ccccc2F)CC(C)N1 (stereo not drawn) [IX-308, N-(1-((2-(3,5-dimethylpiperazin-1-yl)-5-fluorophenyl)amino)-1-oxo-3-phenylpropan-2-yl)-2-fluorobenzamide] | 3.13 (≈ 6.35 µM) | 0.39 (≈ 0.792 µM) | – | < 0.39 | – |
| Cc1ccccc1NC(=O)C(Cc1ccc(O)cc1)NC(=O)c1ccccc1C (stereo not drawn) [IX-66, N-(3-(4-hydroxyphenyl)-1-oxo-1-(o-tolylamino)propan-2-yl)-2-methylbenzamide] | 50 (≈ 129 µM) | 1.56 (≈ 4.02 µM) | >100 | – | – |
| O=C(NC(Cc1ccccc1)C(=O)Nc1ccccc1-n1ccnn1)c1ccccc1 (stereo not drawn) [I-214] | > 50 | 3.12 (≈ 7.59 µM) | >100 | – | – |
| Cc1ccccc1NC(=O)C(Cc1ccc(O)c(O)c1)NC(=O)c1ccccc1 (stereo not drawn) [IX-25, N-(3-(3,4-dihydroxyphenyl)-1-oxo-1-(o-tolylamino)propan-2-yl)benzamide] | – | 1.56 (≈ 4 µM) | 21 | – | – |
| CC1CN(c2ccc(F)cc2NC(=O)C(Cc2ccccc2)NC(=O)c2ccccc2F)CCN1 (stereo not drawn) [IX-305, 2-fluoro-N-(1-((5-fluoro-2-(3-methylpiperazin-1-yl)phenyl)amino)-1-oxo-3-phenylpropan-2-yl)benzamide] | 1.56 (≈ 3.26 µM) | 0.78 (≈ 1.63 µM) | – | 12.5 (≈ 26.1 µM) | – |
| O=C(NC(Cc1ccccc1)C(=O)Nc1ccccc1)c1ccccc1 [AAP4, Nα-benzoyl-N-phenyl-D/L-phenylalaninamide] | – | – | – | – | 0.78 (≈ 2.26 µM) |
| Cc1ccc(Cl)cc1NC(=O)[C@H](Cc1ccccc1)NC(=O)c1ccccc1F [IX-55b] | > 50 | 25 (≈ 60.8 µM) | – | > 50 | – |
| CC(=O)N1CCN(c2ccccc2NC(=O)C(Cc2ccccc2)NC(=O)c2ccccc2)CC1 (stereo not drawn) [IX-236, N-(1-((2-(4-acetylpiperazin-1-yl)phenyl)amino)-1-oxo-3-phenyl-propan-2-yl)benzamide] | 6.25 (≈ 13.3 µM) | 0.195 (≈ 0.414 µM) | – | 6.25 (≈ 13.3 µM) | – |
| O=C(NC(Cc1ccccc1)C(=O)Nc1cc(F)ccc1N1CC2CCCNC2C1)c1ccccc1F (stereo not drawn) [IX-307, 2-fluoro-N-(1-((5-fluoro-2-(octahydro-6H-pyrrolo[3,4-b]pyridin-6-yl)-phenyl)amino)-1-oxo-3-phenylpropan-2-yl)benzamide] | 12.5 (≈ 24.8 µM) | 6.12 (≈ 12.1 µM) | – | 25 (≈ 49.5 µM) | – |
| Cc1ccc(Cl)cc1NC(=O)[C@@H](Cc1ccccc1)NC(=O)c1ccccc1F [IX-55a] | 0.78 (≈ 1.9 µM) | 0.073 (≈ 0.178 µM) | – | 0.78 (≈ 1.9 µM) | – |
| O=C(NC(Cc1ccccc1)C(=O)Nc1cccc2ncccc12)c1ccccc1F (stereo not drawn) [IX-58, 2-fluoro-N-(1-oxo-3-phenyl-1-(quinolin-5-ylamino)propan-2-yl)benzamide] | – | 1.56 (≈ 3.77 µM) | 78 | – | – |
| Cc1c(NC(=O)C(Cc2ccccc2)NC(=O)c2ccccc2)cccc1-n1ccnn1 (stereo not drawn) [I-215] | > 50 | 3.12 (≈ 7.34 µM) | >100 | – | – |
| O=C(NC(Cc1ccc(O)cc1)C(=O)Nc1cccc2cnccc12)c1ccccc1 (stereo not drawn) [IX-19, N-(3-(4-hydroxyphenyl)-1-(isoquinolin-5-ylamino)-1-oxopropan-2-yl)benzamide] | 6.25 (≈ 15.2 µM) | 0.39 (≈ 0.948 µM) | 42 | – | – |
| CCOc1cccc(C(=O)NC(Cc2ccccc2)C(=O)Nc2ccccc2C)c1 (stereo not drawn) [I-37] | > 50 | 25 (≈ 62.1 µM) | 5 | – | – |
| CNC(=O)N1CCN(c2ccccc2NC(=O)C(Cc2ccccc2)NC(=O)c2ccccc2)CC1 (stereo not drawn) [IX-238, 4-(2-(2-benzamido-3-phenylpropanamido)phenyl)-N-methyl-piperazine-1-carboxamide] | 1.56 (≈ 3.21 µM) | 0.195 (≈ 0.402 µM) | – | 1.56 (≈ 3.21 µM) | – |

| SMILES | MIC [1] [µg/mL] | MIC [2, 5] [µg/mL] | MCC mammalian cells Vero E6 ATCC CRL1586 [3] [µg/mL] | MIC [4] [µg/mL] | MIC [2, 6] [µg/mL] |
| --- | --- | --- | --- | --- | --- |
| Cn1ncc2c(NC(=O)C(Cc3ccccc3)NC(=O)c3ccccc3F)cccc21 (stereo not drawn) [IX-296, 2-fluoro-N-(1-((1-methyl-1H-indazol-4-yl)amino)-1-oxo-3-phenyl-propan-2-yl)benzamide] | 1.56 (≈ 3.75 µM) | 0.78 (≈ 1.87 µM) | – | 1.56 (≈ 3.75 µM) | – |
| Cc1c(NC(=O)C(Cc2ccccc2)NC(=O)c2ccccc2)cccc1-n1cnnn1 (stereo not drawn) [I-226] | > 50 | 0.78 (≈ 1.83 µM) | >100 | – | – |
| O=C(NC(Cc1ccc(O)cc1)C(=O)Nc1cccc2c1OCO2)c1ccccc1Br (stereo not drawn) [IX-125, N-(1-(benzo[d][1,3]dioxol-4-ylamino)-3-(4-hydroxyphenyl)-1-oxopropan-2-yl)-2-bromobenzamide] | 25 (≈ 51.7 µM) | 1.56 (≈ 3.23 µM) | – | 50 (≈ 103 µM) | – |
| Cc1c(NC(=O)C(Cc2ccccc2)NC(=O)c2ccccc2)cccc1-n1cncn1 (stereo not drawn) [I-204] | 25 (≈ 58.8 µM) | 3.12 (≈ 7.34 µM) | >100 | – | – |
| O=C(N[C@@H](Cc1ccccc1)C(=O)Nc1cc(Cl)ccc1N1CCNCC1)c1ccccc1F (racemic) [IX-274b] | 6.25 (≈ 13 µM) | 6.25 (≈ 13 µM) | – | 6.25 (≈ 13 µM) | – |
| O=C(NC(Cc1ccccc1)C(=O)Nc1ccccn1)c1ccccc1 (stereo not drawn) [AAP6] | – | – | – | – | 1.56 (≈ 4.52 µM) |
| CCc1cccc(C(=O)NC(Cc2ccccc2)C(=O)Nc2ccccc2C)c1 (stereo not drawn) [I-124] | > 50 | 25 (≈ 64.7 µM) | >39 | – | – |
| O=C(NC(Cc1ccccc1)C(=O)Nc1ccccc1F)c1ccccc1 [AAP3, Nα-benzoyl-N-(2-fluorophenyl)-D/L-phenylalaninamide] | – | – | – | – | 1.56 (≈ 4.3 µM) |
| O=C(NC(Cc1ccccc1)C(=O)Nc1ccncc1)c1ccccc1 [AAP5, Nα-benzoyl-N-(4-pyridyl)-D/L-phenylalaninamide] | – | – | – | – | 12.5 (≈ 36.2 µM) |
| Cc1ccccc1C(=O)NC(Cc1ccccc1)C(=O)Nc1cccc2nnn(C)c12 (stereo not drawn) [IX-301, 2-methyl-N-(1-((1-methyl-1H-benzo[d][1,2,3]triazol-7-yl)amino)-1-oxo-3-phenylpropan-2-yl)benzamide] | 6.25 (≈ 15.1 µM) | 0.39 (≈ 0.943 µM) | – | 3.13 (≈ 7.57 µM) | – |
| NC1CCN(c2ccc(F)cc2NC(=O)C(Cc2ccccc2)NC(=O)c2ccccc2F)C1 (stereo not drawn) [IX-306, N-(1-((2-(3-aminopyrrolidin-1-yl)-5-fluorophenyl)amino)-1-oxo-3-phenylpropan-2-yl)-2-fluorobenzamide] | – | 0.78 (≈ 1.68 µM) | – | – | – |
| COc1ccc(F)cc1NC(=O)C(Cc1ccccc1)NC(=O)c1ccccc1C (stereo not drawn) [IX-277, N-(1-((5-fluoro-2-methoxyphenyl)amino)-1-oxo-3-phenylpropan-2-yl)-2-methylbenzamide] | 0.31 (≈ 0.763 µM) | 0.39 (≈ 0.96 µM) | – | 0.39 (≈ 0.96 µM) | – |
| O=C(N[C@@H](Cc1ccccc1)C(=O)Nc1cc(F)ccc1N1CCNCC1)c1ccccc1F (racemic) [IX-214b] | 12.5 (≈ 26.9 µM) | 6.25 (≈ 13.5 µM) | – | 12.5 (≈ 26.9 µM) | – |
| O=C(NC(Cc1ccccc1)C(=O)Nc1cc(F)ccc1N1CCN(CCO)CC1)c1cccs1 (stereo not drawn) [IX-247, N-(1-((5-fluoro-2-(4-(2-hydroxyethyl)piperazin-1-yl)phenyl)amino)-1-oxo-3-phenylpropan-2-yl)thiophene-2-carboxamide] | 1.56 (≈ 3.14 µM) | 0.39 (≈ 0.785 µM) | – | 3.12 (≈ 6.29 µM) | – |
| Cn1nnc2cccc(NC(=O)C(Cc3ccccc3)NC(=O)c3ccccc3F)c21 (stereo not drawn) [IX-300, 2-fluoro-N-(1-((1-methyl-1H-benzo[d][1,2,3]triazol-7-yl)amino)-1-oxo-3-phenylpropan-2-yl)benzamide] | 6.25 (≈ 15 µM) | 1.56 (≈ 3.74 µM) | – | 6.25 (≈ 15 µM) | – |
